Reference: PMC4476799, “Englerin A Agonizes the TRPC4/C5 Cation Channels to Inhibit Tumor Cell Line Proliferation” (PLoS ONE, 2015)
Values joined by “and” are separate entries in the source; they are usually repeats but may differ in a detail not shown here. Identical values can stand only once.

Experiments:
[1] = Anesthetized rat experiments (hemodynamics, blood levels); format: in vivo; conditions: individual animals; for Outcome: IV infusion 0.3 mg/kg englerin B (doses up to 0.3 mg/kg); for Compound concentration in blood: IV infusion 0.3 mg/kg englerin B
Description: Rats were anesthetized via an intra-peritoneal (ip) injection of ketamine/xylazine (80/10 mg/kg). A half dose (40 mg/kg ketamine) was given as supplemental anesthesia as needed. Animals were placed on a heating pad set to maintain body temperature at approximately 37°C. Body temperature was monitored throughout the experiment via a rectal temperature probe.
Once consciousness had been lost, the trachea was isolated and an endotracheal tube was inserted for mechanical ventilation. The endotracheal tube was connected to a mechanical ventilator that provided positive-pressure ventilation with room air, set to maintain 60 breaths/min with a tidal volume of 15 ml/kg. An incision was made on both sides of the neck. Both carotid arteries and a jugular vein were isolated and ligated anteriorly. A Millar pressure catheter was introduced into the left carotid artery to measure systolic arterial pressure (SAP), diastolic pressure (DAP), mean arterial pressure (MAP) and heart rate (HR). Another Millar pressure catheter was introduced into the left ventricular chamber through the right carotid artery to measure left ventricular systolic pressure (LVSP) and left ventricular end diastolic pressure (LVEDP).
A cannula for test compound administration was placed into a jugular vein. A lead II electrocardiogram was recorded via needle electrodes placed in the right arm, left leg and chest and PR and QRS intervals were reported.
After rats were surgically instrumented, hemodynamic and electrocardiographic monitoring was initiated. […] The duration of the experimental testing was approximately 60 minutes.
At the end of each infusion period, approximately 0.5 ml of blood was withdrawn from the vena cava into a pre-chilled collection tube containing 2.5 ml of 90% ACN (acetonitrile):10% water.

[2] = male, Sprague Dawley, rat, in vivo, po, 5 mg/kg
Description: A 25 μl aliquot of sample was subjected to protein precipitation using 150 μl of acetonitrile containing 100 ng/ml of internal standard (glyburide). After vortex and centrifugation for 5 minutes at 4000 revolutions per minute, 125 μl of supernatant was transferred to a 1 ml 96-well plate, followed by the addition of 50 μl of water. The analysis was conducted by using HPLC separation coupled with mass spectrometric detection.
Agilent 1100 (Santa Clara, CA) was used for LC separations coupled with CTC PAL (Zwingen, Switzerland). […] A Sciex API 4000 Q Trap mass spectrometer equipped with a Turbo Ionspray interface from Applied Biosystems (Framingham, MA) was used for detection. The instrument was operated in the positive ion MRM mode employing nitrogen as a collision gas. […] Data were acquired and processed by Sciex Analyst 1.5.2 software.
Standard regression and back-calculation of unknown concentrations were performed by Thermo Watson 7.4 software purchased from Thermo Fisher Scientific, Inc. (Philadelphia, PA). Quantification of the parent compound in rat blood was based on at least 5-point calibration curve. […] The bias of all calibration standards and quality control samples was within the acceptance criteria of ± 30%.

Compound: CC(C)[C@@]12C[C@@H](O)[C@@](C)(O1)[C@@H]1CC[C@@H](C)[C@H]1[C@@H]2OC(=O)/C=C/c1ccccc1 [Englerin B]
- Outcome [1]: No effect
- Outcome ([1]; listed as englerin B): no effect on mean arterial pressure or animal viability
- Compound concentration in blood [1]: 539 nM and 362 nM and 462 nM and 442 nM
- Compound concentration in blood ([1]; listed as englerin B): 362 to 539 nM
- blood levels of englerin B after dosing englerin A [2]: > 50 nM
